This is an account of results in paper PMC8713996, “An anti-tuberculosis compound screen using a zebrafish infection model identifies an aspartyl-tRNA synthetase inhibitor” (Disease Models & Mechanisms, 2021).

The subject of test [1] is M. marinum-tdTomato yolk-infected zebrafish embryos. Conditions: in vivo.
For another test, the system named is M. tuberculosis H37Rv. Kind of test: microbe, parasite or virus in culture. It counts as cell-based. Conditions: Mycobacterium tuberculosis, read-out: MIC90 Mtb in vitro; for IC90: 144 h.
The subject of test [2] is Mtb-infected THP-1 macrophages. The experiment in a line: microbe, parasite or virus in culture. It is filed as cell-based, Mycobacterium tuberculosis. Particulars: for MIC50 / IC50: Mycobacterium tuberculosis, read-out: MIC50 Mtb ex vivo; for IC50: THP-1, 96 h.
Another test relates to M. marinum M^USA. Kind of test: microbe, parasite or virus in culture. It counts as cell-based. Particulars: Mycobacterium marinum, read-out: MIC90 Mmar in vitro.

Converted amounts (≈) assume the structure as drawn.

Regarding `CC(C)=CCC/C(C)=C/CNCCNC1C2CC3CC(C2)CC1C3` (stereo not drawn) [SQ109], in test [1], the “Bacterial load (integrated red fluorescence) in infected embryos vs DMSO” value (“Bacterial load … vs DMSO” for short) is recorded as “significant reduction of the bacterial signal”.

With `CC12CC3CC(C)(C1)CC(C(=O)Nc1nc4ccccc4s1)(C3)C2` [TBA8], the MIC90 with M. tuberculosis H37Rv turned out to be 15.8 ± 7.5 µM (≈ 5.38 µg/mL). In addition, the MIC50 in test [2] turned out to be 6.9 ± 8.7 µM (≈ 2.35 µg/mL).

Turning to `COc1ccc(Cc2nn3c(-c4ccccc4)nnc3s2)cc1` [TBA29], the MIC90 with M. tuberculosis H37Rv worked out at 3.6 ± 0.9 µM (≈ 1.16 µg/mL). The MIC50 in test [2] worked out at 6.1 ± 4 µM (≈ 1.97 µg/mL).

Regarding `CC(C)C(=O)Nc1ccc(C(=O)Oc2ccccc2)c(O)c1` [TBA32], in the test on M. tuberculosis H37Rv, the MIC90 worked out at 2 ± 0.5 µM (≈ 0.599 µg/mL). Also, the MIC50 in test [2] was found to be 9.6 ± 16.6 µM (≈ 2.87 µg/mL).

As to `O=C(Nc1ccc(Cl)cc1)NC1CC2CCC1C2` (stereo not drawn) [TBA37], the MIC90 with M. tuberculosis H37Rv was found to be 13.6 ± 4.3 µM (≈ 3.6 µg/mL). For the same compound, the MIC50 in test [2] was 5.5 ± 3.6 µM (≈ 1.46 µg/mL).

On to `Cc1ccc(-c2nnc3sc(Cc4ccccc4)nn23)cc1` [TBA38], for which the MIC90 in the test on M. tuberculosis H37Rv is 9.9 ± 1.9 µM (≈ 3.03 µg/mL). Besides, the MIC50 in test [2] was 5.6 ± 3.4 µM (≈ 1.72 µg/mL).

Take `Cc1ccc(NC(=O)C23CC4CC(CC2C4)C3)cc1` [TBA52]: the IC90 in the test with M. tuberculosis H37Rv came out at 9.6 ± 5.3 µM. The IC50 in test [2] came to 4.2 ± 6 µM.

Turning to `COc1cccc(OCCNC(=O)c2cc([N+](=O)[O-])cc([N+](=O)[O-])c2)c1` [TBA57], the MIC90 in the test on M. tuberculosis H37Rv worked out at 1.7 ± 3.1 µM (≈ 0.614 µg/mL). Also, the MIC50 in test [2] is 1.6 ± 0.7 µM (≈ 0.578 µg/mL).

Take `O=C(OCC(=O)c1c[nH]c2ccccc12)c1ccc([N+](=O)[O-])s1` [TBA61]: in the test on M. tuberculosis H37Rv, the MIC90 came out at 2.2 ± 0.2 µM (≈ 0.727 µg/mL). Moreover, in test [2], the “Intracellular activity (bacterial viability, macrophage protection)” value is “did not show activity” and the MIC50 is above 30 µM.

`COc1ccc(CNC(=O)c2c(C)nc3ccccn23)cc1` [TBA117]: the MIC90 in the test on M. tuberculosis H37Rv is 4 ± 1.4 µM (≈ 1.18 µg/mL). The MIC50 in test [2] amounted to 0.4 ± 0.1 µM (≈ 0.118 µg/mL).

`Cc1nc2ccccn2c1C(=O)NCc1ccc2c(c1)OCO2` [TBA120]: the MIC90 in the test with M. tuberculosis H37Rv worked out at 5.9 ± 2.6 µM (≈ 1.83 µg/mL). For the same compound, in test [2], the MIC50 worked out at 0.5 ± 0.2 µM (≈ 0.155 µg/mL).

For the compound `CC(C)(C)c1ccc(Cn2cnc([N+](=O)[O-])n2)cc1` [TBA139], the IC90 in the test with M. tuberculosis H37Rv was 11.8 ± 12.4 µM. For the same compound, the IC50 in test [2] stood at 4.6 ± 7.1 µM.

For `O=C(Nc1ccc(F)cc1)NC1CCCCCCC1` [TBA145], in the test on M. tuberculosis H37Rv, the MIC90 worked out at 19 ± 5.7 µM (≈ 5.02 µg/mL). Further, the MIC50 in test [2] amounted to 8 ± 14.2 µM (≈ 2.11 µg/mL).

In the case of `O=c1c2ccccc2oc2nc3n(c(=O)c12)CCCS3` [TBA161-A, 3,4-dihydro-chromeno[2′,3′:4,5]pyrimido[2,1-b][1,3]thiazine-6,7-dione], the MIC90 in the test with M. tuberculosis H37Rv was 3.8 ± 3.1 µM (≈ 1.09 µg/mL); with M. marinum M^USA, 2.8 ± 1.7 µM (≈ 0.802 µg/mL). In addition, in test [2], the MIC50 is 1.1 ± 0.9 µM (≈ 0.315 µg/mL).

As for `CCc1cccc2c(C(=O)COC(=O)c3ccc([N+](=O)[O-])s3)c[nH]c12` [TBA172], in the test with M. tuberculosis H37Rv, the MIC90 came to 2.4 ± 0.4 µM (≈ 0.86 µg/mL). For the same compound, in test [2], the “Intracellular activity (bacterial viability, macrophage protection)” value is on record as “did not show activity” and the MIC50 was above 30 µM.

Turning to `COc1nc2ccc(Br)cc2cc1[C@@H](c1ccccc1)[C@@](O)(CCN(C)C)c1cccc2ccccc12` [bedaquiline], the “Bacterial load … vs DMSO” value in test [1] is reported as “significant reduction of the bacterial signal”.

With `C[C@]1(COc2ccc(N3CCC(Oc4ccc(OC(F)(F)F)cc4)CC3)cc2)Cn2cc([N+](=O)[O-])nc2O1` [delamanid], the “Bacterial load … vs DMSO” value in test [1] is “significant reduction of the bacterial signal”.

Regarding `CCc1cc(C(N)=S)ccn1` [ethionamide], the “Bacterial load … vs DMSO” value in test [1] is recorded as “significant reduction of the bacterial signal”.

On to `O=c1nc(N2CCN(CC3CCCCC3)CC2)sc2c([N+](=O)[O-])cc(C(F)(F)F)cc12` [macozinone], for which the “Bacterial load … vs DMSO” value in test [1] is “significant reduction of the bacterial signal”.

`O=[N+]([O-])c1cn2c(n1)OC[C@@H](OCc1ccc(OC(F)(F)F)cc1)C2` [pretonamid]: in test [1], the “Bacterial load … vs DMSO” value was “significant reduction of the bacterial signal”.

In the case of `CO[C@H]1/C=C/O[C@@]2(C)Oc3c(C)c(O)c4c(O)c(c(/C=N/N5CCN(C)CC5)c(O)c4c3C2=O)NC(=O)/C(C)=C\C=C\[C@H](C)[C@H](O)[C@@H](C)[C@@H](O)[C@@H](C)[C@H](OC(C)=O)[C@@H]1C` [rifampicin], the “Bacterial load … vs DMSO” value in test [1] was “significant reduction of the bacterial signal”.

As for `CC(=O)NC[C@H]1CN(c2ccc(N3CCSCC3)c(F)c2)C(=O)O1` [sutezolid], the “Bacterial load … vs DMSO” value in test [1] is “significant reduction of the bacterial signal”.
